Test results reported in ChEMBL document CHEMBL1144543, “QSAR study of anticoccidial activity for diverse chemical compounds: prediction and experimental assay of trans-2-(2-nitrovinyl)furan” (2007).

Tests used:
Format in all cases: functional
[1] = tested on: Eimeria tenella; experiment: Anticococcidal activity against Eimeria tenella in Chick assessed as reduction in lesion at 2 ug/ml relative to control; set-up: scale not given: the % may be the effect or the level left
[2] = tested on: Eimeria tenella; experiment: Anticococcidal activity against Eimeria tenella in Chick assessed as reduction in lesion at 4 ug/ml relative to control; set-up: scale not given: the % may be the effect or the level left
[3] = tested on: Eimeria tenella; experiment: Anticococcidal activity against Eimeria tenella in Chick assessed as reduction in lesion at 8 ug/ml relative to control; set-up: scale not given: the % may be the effect or the level left
[4] = species: Gallus gallus; experiment: Increase in weight of Eimeria tenella infected Chick at 2 ug/ml relative to control
[5] = species: Gallus gallus; experiment: Increase in weight of Eimeria tenella infected Chick at 4 ug/ml relative to control
[6] = species: Gallus gallus; experiment: Increase in weight of Eimeria tenella infected Chick at 8 ug/ml relative to control
[7] = tested on: Eimeria tenella; experiment: Anticococcidal activity against Eimeria tenella in Chick assessed as reduction in lesion at 125 ug/ml relative to control; set-up: scale not given: the % may be the effect or the level left
[8] = species: Gallus gallus; experiment: Increase in weight of Eimeria tenella infected Chick at 125 ug/ml relative to control

Compound	Activity [1] [%]	Activity [2] [%]	Activity [3] [%]	Activity [4] [%]	Activity [5] [%]	Activity [6] [%]	Activity [7] [%]	Activity [8] [%]
O=[N+]([O-])/C=C/c1ccco1	58.57	67.14	72.86	80.08	86.78	83.86	–	–
CCCc1ncc(C[n+]2ccccc2C)c(N)n1.Cl.[Cl-] [AMPROLIUM]	–	–	–	–	–	–	60	75.19
